In patent US20200399222A1, “PICOLINAMIDES AS FUNGICIDES” (Dow AgroSciences LLC, priority 2018, published 2020):
Like-named read-outs stand apart in the source and are kept apart here.

Legend:
Type in all cases: in vivo
Puccinia triticina = assay: Wheat brown rust (PUCCRT) disease control on wheat seedlings; conditions: Low volume application, 121.5 g/ha
Description: Technical grades of materials were dissolved in acetone, which were then mixed with nine volumes of water containing 110 ppm Triton X-100. The fungicide solutions were applied onto wheat seedlings using an automated booth sprayer to run-off. All sprayed plants were allowed to air dry prior to further handling. All fungicides were evaluated using the aforementioned method for their activity vs. all target diseases, unless stated otherwise. Wheat leaf blotch and brown rust activity were also evaluated using track spray applications, in which case the fungicides were formulated as EC formulations, containing 0.1% Trycol 5941 in the spray solutions. Example B: Evaluation of Fungicidal Activity: Wheat Brown Rust (Puccinia triticina; Synonym: Puccinia recondita f. sp. tritici; Bayer Code PUCCRT) Wheat plants (variety Yuma) were grown from seed in a greenhouse in 50% mineral soil/50% soil-less Metro mix until the first leaf was fully emerged, with 7-10 seedlings per pot. These plants were inoculated with an aqueous spore suspension of Puccinia triticina either prior to or after fungicide treatments. After inoculation the plants were kept in a dark dew room at 22° C. with 100% relative humidity overnight to permit spores to germinate and infect the leaf. The plants were then transferred to a greenhouse set at 24° C. for disease to develop. Fungicide formulation, application and disease assessment followed the procedures as described in the Example A.

Zymoseptoria tritici = assay: Leaf blotch of wheat (SEPTTR) disease control on wheat seedlings; conditions: Low volume application, 121.5 g/ha
Description: Example A: Evaluation of Fungicidal Activity: Leaf Blotch of Wheat (Zymoseptoria tritici; Bayer Code […]) Technical grades of materials were dissolved in acetone, which were then mixed with nine volumes of water containing 110 ppm Triton X-100. The fungicide solutions were applied onto wheat seedlings using an automated booth sprayer to run-off. All sprayed plants were allowed to air dry prior to further handling. All fungicides were evaluated using the aforementioned method for their activity vs. all target diseases, unless stated otherwise. Wheat leaf blotch and brown rust activity were also evaluated using track spray applications, in which case the fungicides were formulated as EC formulations, containing 0.1% Trycol 5941 in the spray solutions. Wheat plants (variety Yuma) were grown from seed in a greenhouse in 50% mineral soil/50% soil-less Metro mix until the first leaf was fully emerged, with 7-10 seedlings per pot. These plants were inoculated with an aqueous spore suspension of Zymoseptoria tritici either prior to or after fungicide treatments. After inoculation the plants were kept in 100% relative humidity (one day in a dark dew chamber followed by two to three days in a lighted dew chamber at 20° C.) to permit spores to germinate and infect the leaf. The plants were then transferred to a greenhouse set at 20° C. for disease to develop. When disease symptoms were fully expressed on the 1st leaves of untreated plants, infection levels were assessed on a scale of 0 to 100 percent disease severity. Percent disease control was calculated using the ratio of disease severity on treated plants relative to untreated plants.

Phakopsora pachyrhizi = assay: Asian soybean rust (PHAKPA) disease control on soybean seedlings; conditions: High volume application at 25 ppm; for pest or weed control at 25 ppm: Phakopsora pachyrhizi
Description: Example C: Evaluation of Fungicidal Activity: Asian Soybean Rust (Phakopsora pachyrhizi; Bayer Code […]) Technical grades of materials were dissolved in acetone, which were then mixed with nine volumes of water containing 0.011% Tween 20. The fungicide solutions were applied onto soybean seedlings using an automated booth sprayer to run-off. All sprayed plants were allowed to air dry prior to further handling. Soybean plants (variety Williams 82) were grown in soil-less Metro mix, with one plant per pot. Two week old seedlings were used for testing. Plants were inoculated either 3 days prior to or 1 day after fungicide treatments. Plants were incubated for 24 h in a dark dew room at 22° C. and 100% relative humidity then transferred to a growth room at 23° C. for disease to develop. Disease severity was assessed on the sprayed leaves.

[1] = 24 h, 1 day protectant, read-out: PHAKPA 1DP (1 Day Protectant) disease control
[2] = 72 h, 3 day curative, read-out: PHAKPA 3DC (3 Day Curative) disease control

Row | SMILES | pest or weed control at 25 ppm (Phakopsora pachyrhizi; [1]) [%] | pest or weed control at 25 ppm (Phakopsora pachyrhizi; [2]) [%] | other results
1 | COc1ccnc(C(=O)N[C@@H](C)C(=O)O[C@H](C)[C@H](C)c2ccccc2C(F)(F)F)c1OC(C)=O [Example 250] | < 80 | < 80 | pest or weed control at 121.5 g/ha (Puccinia triticina; 24 h, 1 Day Protectant, read-out: PUCCRT disease control rating, 1DP): < 0%; pest or weed control at 121.5 g/ha (Puccinia triticina; 72 h, 3 Day Curative, read-out: PUCCRT disease control rating, 3DC): < 80%; pest or weed control at 121.5 g/ha (Zymoseptoria tritici; 24 h, 1 Day Protectant, read-out: SEPTTR disease control rating, 1DP): < 80%; pest or weed control at 121.5 g/ha (Zymoseptoria tritici; 72 h, 3 Day Curative, read-out: SEPTTR disease control rating, 3DC): < 80%
2 | COc1ccnc(C(=O)N[C@H](C(=O)O[C@@H](C)[C@H](C)c2ccc(F)cc2C)C(C)C)c1OC(C)=O [Example 185] | < 0 | < 0 | 
3 | COc1ccnc(C(=O)N[C@H](C)C(=O)O[C@H](C)[C@H](C)c2ccc(F)cc2C)c1OC(C)=O [Example 195] | < 80 | < 0 | 
4 | COc1ccc([C@@H](C)[C@@H](C)OC(=O)[C@H](C)NC(=O)c2nccc(OC)c2OC(C)=O)c(C)c1 [Example 183] | > 80 | < 80 | 
5 | COc1ccnc(C(=O)N[C@H](C(=O)O[C@@H](C)[C@H](C)c2ccccc2C)C(C)C)c1OC(=O)C(C)C [Example 211] | < 80 | < 0 | 
6 | COc1ccc([C@@H](C)[C@@H](C)OC(=O)[C@@H](NC(=O)c2nccc(OC)c2OC(C)=O)C(C)C)c(C)c1 [Example 193] | < 80 | < 0 | 
7 | COc1ccnc(C(=O)N[C@@H](C)C(=O)O[C@@H](C)[C@@H](C)c2ccccc2C)c1OC(=O)c1ccccc1 [Example 282] | > 80 | > 80 | 
8 | COc1ccnc2c(=O)n([C@@H](C)C(=O)O[C@@H](C)[C@@H](C)c3ccccc3C)c(=O)oc12 [Example 285] | > 80 | > 80 | 
9 | COc1ccnc(C(=O)NCC(=O)O[C@@H](C)[C@@H](C)c2ccc(F)cc2C)c1OC(=O)C(C)C [Example 196] |  |  | PHAKPA 1DP (1 Day Protectant) disease control (Phakopsora pachyrhizi; 1 day protectant): A (>80); PHAKPA 3DC (3 Day Curative) disease control (Phakopsora pachyrhizi; 3 day curative): B (≤80)
10 | COc1ccnc(C(=O)N[C@@H](C)C(=O)O[C@@H](C)[C@@H](C)c2ccccc2C)c1OCOC(=O)C(C)C [Example 284] | > 80 | > 80 | 
11 | CCCC(=O)Oc1c(OC)ccnc1C(=O)N[C@@H](C)C(=O)O[C@@H](C)[C@@H](C)c1ccccc1C [Example 279] | > 80 | > 80 | 
12 | COc1ccnc(C(=O)N[C@H](C)C(=O)O[C@@H](C)[C@H](C)c2ccccc2C)c1OC(C)=O [Example 194] | < 0 | < 0 | 
13 | COc1ccc([C@@H](C)[C@@H](C)OC(=O)[C@H](C)NC(=O)c2nccc(OC)c2OC(=O)C(C)C)c(C)c1 [Example 227] | < 80 | < 0 | 
14 | COc1ccnc(C(=O)N[C@@H](C)C(=O)O[C@@H](C)[C@@H](C)c2ccccc2C)c1OC(=O)C1CC1 [Example 281] | > 80 | > 80 | 
15 | COc1ccnc(C(=O)N[C@H](C(=O)O[C@@H](C)[C@@H](C)c2ccc(F)cc2)C(C)C)c1OC(C)=O [Example 187] | > 80 | < 0 | 
16 | COc1ccnc(C(=O)N[C@H](C(=O)O[C@@H](C)[C@@H](C)c2ccc(F)cc2C)C(C)C)c1OC(=O)C(C)C [Example 206] |  |  | PHAKPA 1DP (1 Day Protectant) disease control (Phakopsora pachyrhizi; 1 day protectant): B (≤80); PHAKPA 3DC (3 Day Curative) disease control (Phakopsora pachyrhizi; 3 day curative): D (≤0)
17 | COc1ccnc(C(=O)N[C@H](C(=O)O[C@H](C)[C@@H](C)c2ccccc2C)C(C)C)c1OC(C)=O [Example 191] | < 80 | < 80 | 
18 | COc1ccnc(C(=O)N[C@H](C(=O)O[C@H](C)[C@H](C)c2ccc(F)cc2C)C(C)C)c1OC(C)=O [Example 189] | > 80 | < 80 | 

Row | SMILES | pest or weed control at 25 ppm (Phakopsora pachyrhizi; [1]) [%] | pest or weed control at 25 ppm (Phakopsora pachyrhizi; [2]) [%] | other results
19 | COc1ccnc(C(=O)N[C@@H](C)C(=O)O[C@@H](C)[C@@H](C)c2ccc(F)cc2)c1OC(=O)C(C)C [Example 203] |  |  | PHAKPA 1DP (1 Day Protectant) disease control (Phakopsora pachyrhizi; 1 day protectant): A (>80); PHAKPA 3DC (3 Day Curative) disease control (Phakopsora pachyrhizi; 3 day curative): B (≤80)
20 | COc1ccc([C@@H](C)[C@@H](C)OC(=O)[C@@H](NC(=O)c2nccc(OC)c2OC(=O)C(C)C)C(C)C)c(C)c1 [Example 217] | < 80 | < 0 | 
21 | COc1ccnc(C(=O)N[C@@H](C)C(=O)O[C@@H](C)[C@H](C)c2ccccc2C)c1OC(=O)C(C)C [Example 228] |  |  | PHAKPA 1DP (1 Day Protectant) disease control (Phakopsora pachyrhizi; 1 day protectant): D (≤0); PHAKPA 3DC (3 Day Curative) disease control (Phakopsora pachyrhizi; 3 day curative): D (≤0)
22 | COc1ccnc(C(=O)N[C@@H](C)C(=O)O[C@H](C)[C@@H](C)c2ccccc2C)c1OC(=O)C(C)C [Example 225] | < 0 | < 0 | 
23 | COc1ccnc(C(=O)NCC(=O)O[C@@H](C)[C@H](C)c2ccccc2C)c1OC(=O)C(C)C [Example 198] | < 0 | < 0 | 
24 | COc1ccnc(C(=O)N[C@@H](C)C(=O)O[C@@H](C)[C@@H](C)c2ccc(F)cc2)c1OC(=O)C(C)C [Example 229] |  |  | PHAKPA 1DP (1 Day Protectant) disease control (Phakopsora pachyrhizi; 1 day protectant): D (≤0); PHAKPA 3DC (3 Day Curative) disease control (Phakopsora pachyrhizi; 3 day curative): D (≤0)
25 | COc1ccnc(C(=O)N[C@@H](C)C(=O)O[C@@H](C)[C@H](C)c2ccc(F)cc2C)c1OC(=O)C(C)C [Example 201] | < 80 | < 80 | 
26 | COc1ccc([C@H](C)[C@H](C)OC(=O)CNC(=O)c2nccc(OC)c2OC(=O)C(C)C)c(C)c1 [Example 224] |  |  | PHAKPA 1DP (1 Day Protectant) disease control (Phakopsora pachyrhizi; 1 day protectant): B (≤80); PHAKPA 3DC (3 Day Curative) disease control (Phakopsora pachyrhizi; 3 day curative): D (≤0)
27 | COc1ccc([C@H](C)[C@H](C)OC(=O)[C@H](C)NC(=O)c2nccc(OC)c2OC(=O)C(C)C)c(C)c1 [Example 230] |  |  | PHAKPA 1DP (1 Day Protectant) disease control (Phakopsora pachyrhizi; 1 day protectant): D (≤0); PHAKPA 3DC (3 Day Curative) disease control (Phakopsora pachyrhizi; 3 day curative): D (≤0)
28 | COc1ccnc(C(=O)N[C@@H](C)C(=O)O[C@H](C)[C@H](C)c2ccc(F)cc2)c1OC(=O)C(C)C [Example 226] | < 0 | < 80 | 
29 | COc1ccnc(C(=O)N[C@H](C(=O)O[C@H](C)[C@H](C)c2ccc(F)cc2)C(C)C)c1OC(=O)C(C)C [Example 216] | < 80 | < 0 | 
30 | COc1ccc([C@H](C)[C@H](C)OC(=O)[C@@H](NC(=O)c2nccc(OC)c2OC(C)=O)C(C)C)c(C)c1 [Example 188] | > 80 | < 80 | 
31 | COc1ccnc(C(=O)N[C@H](C(=O)O[C@H](C)[C@@H](C)c2ccc(F)cc2C)C(C)C)c1OC(C)=O [Example 190] | < 0 | < 0 | 
32 | COc1ccnc(C(=O)N[C@H](C)C(=O)O[C@@H](C)[C@H](C)c2ccc(F)cc2C)c1OC(=O)C(C)C [Example 218] | < 0 | < 80 | 
33 | COc1ccnc(C(=O)N[C@H](C(=O)O[C@H](C)[C@@H](C)c2ccccc2C)C(C)C)c1OC(=O)C(C)C [Example 215] | < 80 | < 80 | 
34 | COc1ccnc(C(=O)N[C@H](C(=O)O[C@@H](C)[C@@H](C)c2ccc(F)cc2C)C(C)C)c1OC(=O)C(C)C [Example 209] |  |  | PHAKPA 1DP (1 Day Protectant) disease control (Phakopsora pachyrhizi; 1 day protectant): A (>80); PHAKPA 3DC (3 Day Curative) disease control (Phakopsora pachyrhizi; 3 day curative): A (>80)
35 | COc1ccnc(C(=O)N[C@H](C)C(=O)O[C@H](C)[C@H](C)c2ccc(F)cc2C)c1OC(=O)C(C)C [Example 219] | < 0 | < 0 | 
